Inconclusive results and toxic doses are left out. How the source made its calls: active means survival T/C of 150% or more; inactive means T/C below 125% in these data.
Test system: CD2F1 mice, L1210 leukemia ip, survival T/C
Assay: NCI In Vivo Anticancer Drug Screen. Data for tumor model L1210 Leukemia (intraperitoneal) in CD2F1 (CDF1) mice
Conditions: higher = longer survival
Outline: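 Antitumor effect is scored in animals hosting a serially transplanted tumor. Values compare compound-dosed animals against vehicle-only controls as a simple quotient.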

[1] = endpoint: mean survival time, dose: 100.0 mg/kg/injection, schedule: Q01DX009 (ip), vehicle: saline with Tween-80
[2] = endpoint: mean survival time, dose: 200.0 mg/kg/injection, schedule: Q01DX009 (ip), vehicle: saline with Tween-80
[3] = endpoint: mean survival time, dose: 100.0 mg/kg/injection, schedule: Q04DX003 (ip), vehicle: saline
[4] = endpoint: mean survival time, dose: 200.0 mg/kg/injection, schedule: Q04DX003 (ip), vehicle: saline
[5] = endpoint: mean survival time, dose: 400.0 mg/kg/injection, schedule: Q04DX003 (ip), vehicle: saline

Measured: T/C

C[n+]1c(/C=N/NC(N)=S)ccc2ccccc21
inactive: endpoint: mean survival time, dose: 6.25 mg/kg/injection, schedule: Q01DX009 (ip), vehicle: saline with Tween-80 102 % of control | endpoint: mean survival time, dose: 12.5 mg/kg/injection, schedule: Q01DX009 (ip), vehicle: saline with Tween-80 106 % of control | endpoint: mean survival time, dose: 25.0 mg/kg/injection, schedule: Q01DX009 (ip), vehicle: saline with Tween-80 108 % of control | endpoint: mean survival time, dose: 50.0 mg/kg/injection, schedule: Q01DX009 (ip), vehicle: saline with Tween-80 100 % of control | [1] 91 % of control | [2] 94 % of control | endpoint: median survival time, dose: 6.25 mg/kg/injection, schedule: Q01DX009 (ip), vehicle: saline with Tween-80 100 % of control | endpoint: median survival time, dose: 12.5 mg/kg/injection, schedule: Q01DX009 (ip), vehicle: saline with Tween-80 100 % of control | endpoint: median survival time, dose: 25.0 mg/kg/injection, schedule: Q01DX009 (ip), vehicle: saline with Tween-80 96 % of control | endpoint: median survival time, dose: 50.0 mg/kg/injection, schedule: Q01DX009 (ip), vehicle: saline with Tween-80 96 % of control | endpoint: median survival time, dose: 100.0 mg/kg/injection, schedule: Q01DX009 (ip), vehicle: saline with Tween-80 101 % of control

COC(Cn1cnc2c(N)ncnc21)OC
inactive: [3] 110 % of control | [4] 98 % of control | [5] 112 % of control

Nc1ncnc2c1ncn2C1CC(O)C(CO)O1 (stereo not given)
inactive: endpoint: mean survival time, dose: 600.0 mg/kg/injection, schedule: Q03HX024 (ip), vehicle: saline with Tween-80 97 % of control | endpoint: mean survival time, dose: 900.0 mg/kg/injection, schedule: Q03HX024 (ip), vehicle: saline with Tween-80 103 % of control

CCOC(=O)Nc1cc(F)ccc1F
inactive: endpoint: mean survival time, dose: 100.0 mg/kg/injection, schedule: Q01DX009 (ip), vehicle: other 103 % of control | endpoint: mean survival time, dose: 200.0 mg/kg/injection, schedule: Q01DX009 (ip), vehicle: other 94 % of control | endpoint: mean survival time, dose: 400.0 mg/kg/injection, schedule: Q01DX009 (ip), vehicle: other 95 % of control

Cc1cc[n+]([O-])c(N(C(=O)c2ccccc2)C(=O)c2ccccc2)c1
inactive: [1] 98 % of control | endpoint: mean survival time, dose: 100.0 mg/kg/injection, schedule: Q04DX003 (ip), vehicle: saline with Tween-80 95 % of control | [2] 102 % of control | endpoint: mean survival time, dose: 200.0 mg/kg/injection, schedule: Q04DX003 (ip), vehicle: saline with Tween-80 103 % of control | endpoint: mean survival time, dose: 400.0 mg/kg/injection, schedule: Q01DX009 (ip), vehicle: saline with Tween-80 107 % of control | endpoint: mean survival time, dose: 400.0 mg/kg/injection, schedule: Q04DX003 (ip), vehicle: saline with Tween-80 97 % of control

C[C@]12C=CC(=O)C=C1CC[C@@H]1[C@@H]2C(=O)C[C@@]2(C)[C@H]1CC[C@]2(O)C(=O)CO
inactive: endpoint: mean survival time, dose: 6.25 mg/kg/injection, schedule: Q03HX008 (ip), vehicle: saline 98 % of control | endpoint: mean survival time, dose: 6.25 mg/kg/injection, schedule: Q03HX016 (ip), vehicle: saline 97 % of control | endpoint: mean survival time, dose: 6.25 mg/kg/injection, schedule: Q03HX024 (ip), vehicle: saline 100 % of control | endpoint: mean survival time, dose: 12.5 mg/kg/injection, schedule: Q03HX008 (ip), vehicle: saline 98 % of control | endpoint: mean survival time, dose: 12.5 mg/kg/injection, schedule: Q03HX016 (ip), vehicle: saline 98 % of control | endpoint: mean survival time, dose: 12.5 mg/kg/injection, schedule: Q03HX024 (ip), vehicle: saline 96 % of control | endpoint: mean survival time, dose: 25.0 mg/kg/injection, schedule: Q01DX009 (ip), vehicle: saline 102 % of control | endpoint: mean survival time, dose: 25.0 mg/kg/injection, schedule: Q03HX008 (ip), vehicle: saline 101 % of control | endpoint: mean survival time, dose: 25.0 mg/kg/injection, schedule: Q03HX016 (ip), vehicle: saline 104 % of control | endpoint: mean survival time, dose: 25.0 mg/kg/injection, schedule: Q03HX024 (ip), vehicle: saline 95 % of control | endpoint: mean survival time, dose: 50.0 mg/kg/injection, schedule: Q01DX001 (ip), vehicle: saline 93 % of control | endpoint: mean survival time, dose: 50.0 mg/kg/injection, schedule: Q01DX001 (oral), vehicle: saline 105 % of control | endpoint: mean survival time, dose: 50.0 mg/kg/injection, schedule: Q01DX009 (ip), vehicle: saline 102 % of control | endpoint: mean survival time, dose: 50.0 mg/kg/injection, schedule: Q01DX009 (oral), vehicle: saline 100 % of control | endpoint: mean survival time, dose: 50.0 mg/kg/injection, schedule: Q03HX008 (ip), vehicle: saline 105 % of control | endpoint: mean survival time, dose: 50.0 mg/kg/injection, schedule: Q03HX016 (ip), vehicle: saline 101 % of control | endpoint: mean survival time, dose: 50.0 mg/kg/injection, schedule: Q03HX024 (ip), vehicle: saline 101 % of control | endpoint: mean survival time, dose: 50.0 mg/kg/injection, schedule: Q04DX003 (ip), vehicle: saline 100 % of control | endpoint: mean survival time, dose: 50.0 mg/kg/injection, schedule: Q08DX002 (ip), vehicle: saline 90 % of control | endpoint: mean survival time, dose: 100.0 mg/kg/injection, schedule: Q01DX001 (ip), vehicle: saline 102 % of control | endpoint: mean survival time, dose: 100.0 mg/kg/injection, schedule: Q01DX001 (oral), vehicle: saline 103 % of control | endpoint: mean survival time, dose: 100.0 mg/kg/injection, schedule: Q01DX009 (ip), vehicle: saline 103 % of control | endpoint: mean survival time, dose: 100.0 mg/kg/injection, schedule: Q01DX009 (oral), vehicle: saline 96 % of control | endpoint: mean survival time, dose: 100.0 mg/kg/injection, schedule: Q01DX009 (sc), vehicle: steriod suspending solution 107 % of control | endpoint: mean survival time, dose: 100.0 mg/kg/injection, schedule: Q03HX008 (ip), vehicle: saline 105 % of control | endpoint: mean survival time, dose: 100.0 mg/kg/injection, schedule: Q03HX016 (ip), vehicle: saline 98 % of control | endpoint: mean survival time, dose: 100.0 mg/kg/injection, schedule: Q03HX024 (ip), vehicle: saline 101 % of control | [3] 100 % of control | endpoint: mean survival time, dose: 100.0 mg/kg/injection, schedule: Q08DX002 (ip), vehicle: saline 91 % of control | endpoint: mean survival time, dose: 200.0 mg/kg/injection, schedule: Q01DX001 (ip), vehicle: saline 104 % of control | endpoint: mean survival time, dose: 200.0 mg/kg/injection, schedule: Q01DX001 (oral), vehicle: saline 104 % of control | endpoint: mean survival time, dose: 200.0 mg/kg/injection, schedule: Q01DX009 (ip), vehicle: saline 90 % of control | endpoint: mean survival time, dose: 200.0 mg/kg/injection, schedule: Q01DX009 (oral), vehicle: saline 98 % of control | endpoint: mean survival time, dose: 200.0 mg/kg/injection, schedule: Q01DX009 (sc), vehicle: steriod suspending solution 107 % of control | [4] 107 % of control | endpoint: mean survival time, dose: 200.0 mg/kg/injection, schedule: Q08DX002 (ip), vehicle: saline 93 % of control | endpoint: mean survival time, dose: 400.0 mg/kg/injection, schedule: Q01DX001 (ip), vehicle: saline 107 % of control | endpoint: mean survival time, dose: 400.0 mg/kg/injection, schedule: Q01DX001 (oral), vehicle: saline 105 % of control | endpoint: mean survival time, dose: 400.0 mg/kg/injection, schedule: Q01DX009 (ip), vehicle: saline 103 % of control | endpoint: mean survival time, dose: 400.0 mg/kg/injection, schedule: Q01DX009 (oral), vehicle: saline 91 % of control | endpoint: mean survival time, dose: 400.0 mg/kg/injection, schedule: Q01DX009 (sc), vehicle: steriod suspending solution 104 % of control | [5] 100 % of control | endpoint: mean survival time, dose: 400.0 mg/kg/injection, schedule: Q08DX002 (ip), vehicle: saline 89 % of control | endpoint: mean survival time, dose: 800.0 mg/kg/injection, schedule: Q01DX001 (ip), vehicle: saline 107 % of control | endpoint: mean survival time, dose: 800.0 mg/kg/injection, schedule: Q01DX001 (oral), vehicle: saline 104 % of control | endpoint: mean survival time, dose: 800.0 mg/kg/injection, schedule: Q01DX009 (oral), vehicle: saline 103 % of control | endpoint: mean survival time, dose: 800.0 mg/kg/injection, schedule: Q01DX009 (sc), vehicle: steriod suspending solution 98 % of control | endpoint: mean survival time, dose: 800.0 mg/kg/injection, schedule: Q04DX003 (ip), vehicle: saline 95 % of control | endpoint: mean survival time, dose: 800.0 mg/kg/injection, schedule: Q08DX002 (ip), vehicle: saline 94 % of control

[Br][Pt+2][Br].[NH-]c1cccc(F)c1.[NH-]c1cccc(F)c1
inactive: endpoint: mean survival time, dose: 3.13 mg/kg/injection, schedule: Q04DX003 (ip), vehicle: distilled water + Tween-80 97 % of control | endpoint: mean survival time, dose: 6.25 mg/kg/injection, schedule: Q04DX003 (ip), vehicle: distilled water + Tween-80 103 % of control | endpoint: mean survival time, dose: 12.5 mg/kg/injection, schedule: Q04DX003 (ip), vehicle: distilled water + Tween-80 101 % of control | endpoint: mean survival time, dose: 25.0 mg/kg/injection, schedule: Q04DX003 (ip), vehicle: distilled water + Tween-80 104 % of control | endpoint: mean survival time, dose: 50.0 mg/kg/injection, schedule: Q04DX003 (ip), vehicle: distilled water + Tween-80 109 % of control | endpoint: mean survival time, dose: 100.0 mg/kg/injection, schedule: Q04DX003 (ip), vehicle: distilled water + Tween-80 107 % of control

— PubChem BioAssay AID256 (DTP/NCI, 2004)
